{
  "source": "patent US10239871B2",
  "about": "“Compounds and methods for regulating integrins” (ADHAERE PHARMACEUTICALS, INC., priority 2012, dated 2019)",
  "key": {"[1]": {"test_system": "RAW 264.7 macrophage cells", "experiment": "Wound healing assay (macrophage migration)", "type": "cell-based, murine", "conditions": "LPS 100 ng/mL or PMA 100 nM vs unstimulated (DMSO), 48 hours", "description": "Murine RAW 264.7 macrophage cells were grown in DMEM 10% FBS medium in T75 flasks to 70% confluence. The cells were detached by trypsin treatment for 10 minutes at 37° C. and evenly reseeded in 24 well plates and allowed to attain >70% confluency. A scratch was introduced horizontally across the well using 200 µL tip applying even force throughout the etching and holding the tip at approximately an 80 degree angle. The wells were subsequently washed and fresh medium containing various treatment groups was introduced. The wound was imaged using 10× objective. The cells were allowed to grow for 48 hours and the wound was reimaged at the same field after 48 hours. The average extent of wound closure was evaluated by measuring the width of the wound. The area healed was analyzed using ImageJ software and is expressed as percentage healing after 48 hours.\nFor FIG. 4B, RAW 264.7 cells were plated in 24-well tissue culture plates (2×10^6 cells/well) and allowed to adhere in complete media for 12 hours. […] Images of the cells in culture were obtained immediately prior to (0 hours) and after the completion of the experiment (48 hours) using an inverted phase contrast microscope attached to a video camera.\nRepresentative data shown here are from a triplicate well experiment from one of at least two to three independent experiments. **p<0.001, ***p<0.0001."}, "Human macrophages": {"test_system": "Human macrophages", "experiment": "TNF-α release from human macrophages", "type": "cell-based", "conditions": "n=14"}, "Cl66 cells": {"test_system": "Cl66 cells", "experiment": "Orthotopic Cl66 mammary adenocarcinoma tumor growth, with or without Taxol", "type": "in vivo", "conditions": "BALB/c mice, vs vehicle", "experimental": "The syngeneic murine mammary adenocarcinoma cell line Cl66 (moderately metastatic and is related to the highly metastatic 4T1 cell line) was orthotopically introduced in Balb/c animals, by injecting ˜5×10^5 Cl66 cells under the left mammary fat pad of WT BALB/c mice (approx. 8-10 weeks old). The tumor size was measured using calipers every other day until the end of the experiment (approx. 5 weeks). 7-days post implantation, the tumors in all animals became palpable, with an average size of ˜100 mm3. At that time, animals in each group were treated as described. LA1 was administered daily for the first two weeks and then every other day until the end of the experiment. Animals in Group 1 received Saline injections, as control. […] It can also enhance the efficacy of traditional chemotherapy in various cancers, including breast cancer, to produce a synergistic response to the treatment. It can also reduce the incidence and the size of metastases."}, "patients": {"test_system": "patients", "conditions": "cited from earlier work"}, "[2]": {"test_system": "MAPK signaling (pERK, pJNK) in K562 WT cells", "experiment": "Western blotting of pERK and pJNK in K562 WT cells", "type": "cell-based, human", "conditions": "CD11b/CD18 ligation with fibrinogen, all conditions", "experimental": "K562 WT cells were incubated with LA1, LA2, LA15 (15 μM), or fibrinogen (200 μg) in serum-free medium for 1 hour at 37° C. Cell lysates were resolved on 4-12% NuPAGE Bis-Tris SDS-PAGE gels using MES running buffer and transferred to a polyvinylidene difluoride (PVDF) membrane (ThermoScientific) using established protocols. Membranes were incubated with a 1:1,000 dilution of the anti-phospho-protein antibodies (anti phospho-p44/42 MAPK (pERK1/2) antibody (Thr202/Tyr204, Cell Signaling) or anti-phospho-SAPK/JNK (pJNK) antibody (Thr183/Tyr185, Cell Signaling #81E11)), or with an antibody against either total ERK1/2 (p44/42 MARK (Erk1/2), Cell Signaling #137F5) or total JNK (SAPK/JNK, Cell Signaling #56G8) and developed according to the manufacturer's instructions (ThermoScientific). Proteins were quantified by densitometry using ImageJ software. […]\nSecond, an effect of integrin ligation, macro clustering and redistribution in the plasma membrane is the triggering of outside-in intracellular signaling in cells via various MAPKs. […] In FIGS. 6A-6B, immunoblot results from two independent experiments were quantified using ImageJ software and ratio of phosphorylated protein to total protein was determined. Histograms showing this quantitation for each set are also shown. […] In FIGS. 6C-6D, immunoblot results from two independent experiments were quantified and are also shown, as in 6A and 6B."}, "CD11b/CD18": {"target": "CD11b/CD18 (Homo sapiens, UniProt P11215)", "experiment": "Immunofluorescence microscopy of CD11b/CD18 clustering on K562 WT cells", "type": "cell-based", "design": "K562 cells stably transfected with plasmid encoding wild-type integrin CD11b/CD18; expressed in transfected cells", "conditions": "presence of fibrinogen 50 μg/mL", "experimental": "To visualize changes upon ligand binding, fibrinogen (50 μg/mL) was also added to the cell suspension media in a second set of incubations. The cells were fixed in suspension and incubated with mAb 184, which is specific for CD11b/CD18, followed by Alexa Fluor 488-conjugated goat antibody against mouse Ig (Sigma). Fluorescence images were recorded with a Leica DMI16000 deconvolution microscope using an HCX APO 40×/0.75 DRY objective with a DCF360FX camera and with Leica LAS-AF software. A 3-dimensional representation of CD11b/CD18 fluorescence intensity and the analysis of the number of CD11b/CD18 clusters per cell was performed using ImageJ software as described. Clustering determination was carried out by counting individual fluorescent peaks that were projected from the basal to the apical side of the cell and were at least 50% above the base line levels. The images presented are representative of at least 20 cells analyzed for each condition from at least three independent experiments.\nTherefore, to investigate, a combination of confocal microscopy (to study clustering) and western blotting assays (to study intracellular signaling) using K562 WT cells were used. First, CD11b/CD18 cell-surface distribution and macro clustering was studied under various conditions using confocal microscopy. K562 WT cells in suspension were incubated with various agonists, fixed with paraformaldehyde and the surface expressed CD11b/CD18 was fluorescently stained with anti-CD11b/CD18 mAb 1B4. […] The fluorescence images shown are representative of three independent experiments. […] Also shown below each image is a 3D representation of CD11b fluorescence intensity for selected cells, analyzed in ImageJ In FIG. 5B, data shown are mean±SEM from >40 cells per condition and from >3 independent experiments for each condition. ***p<0.0001, ns=not significant."}},
  "data": [
    {"compound": "CCCCCCCCCCCCCC(=O)O[C@@H]1[C@@H](C)[C@@]2(O)[C@@H](C=C(CO)C[C@]3(O)C(=O)C(C)=C[C@@H]23)[C@@H]2C(C)(C)[C@]12OC(C)=O", "note": "[PMA, phorbol-12-myristate-13-acetate, reference compound]", "values": [
      {"measurement": "migration of macrophages into the wound area upon stimulation", "setting": "[1]", "result": "significantly induced the migration of macrophages"}
    ]},
    {"compound": "CCOCc1nc2c(N)nc3ccccc3c2n1CC(C)(C)O", "note": "[R848, reference compound]", "values": [
      {"measurement": "TNF-α release, stimulus alone vs macrophages alone", "setting": "Human macrophages", "result": "significantly stimulated TNF-α release"}
    ]},
    {"compound": "CC(=O)O[C@H]1C(=O)[C@@]2(C)[C@H]([C@H](OC(=O)c3ccccc3)[C@]3(O)C[C@H](OC(=O)[C@H](O)[C@@H](NC(=O)c4ccccc4)c4ccccc4)C(C)=C1C3(C)C)[C@]1(OC(C)=O)CO[C@@H]1C[C@@H]2O", "note": "[Taxol, reference compound]", "values": [
      {"measurement": "rate of tumor growth, single agent", "setting": "Cl66 cells", "result": "significant reduction in the rate of tumor growth"}
    ]},
    {"compound": "CC(=O)O[C@@]12CO[C@@H]1C[C@H](O)[C@@]1(C)C(=O)[C@H](O)C3=C(C)[C@@H](OC(=O)[C@H](O)[C@@H](NC(=O)OC(C)(C)C)c4ccccc4)C[C@@](O)([C@@H](OC(=O)c4ccccc4)[C@H]21)C3(C)C", "note": "[docetaxel]", "values": [
      {"measurement": "incidence rate of bradycardia", "setting": "patients", "result": 1.7, "unit": "%"}
    ]},
    {"compound": "fibrinogen [reference compound]", "values": [
      {"measurement": "phosphorylated ERK (pERK) and phosphorylated JNK (pJNK)", "setting": "[2]", "result": "high levels of both pERK and pJNK"},
      {"measurement": "CD11b/CD18 macro clustering on cell surface", "setting": "CD11b/CD18", "result": "significant CD11b/CD18 macro clustering"}
    ]}
  ]
}
